Values quoted from earlier work as cited in patent publication US20080004223A1, “DERMATOLOGICAL USES OF THE TRIPEPTIDE MELANOCYTE STIMULATING INHIBITORY FACTOR (MIF)” (priority 2006, published 2008).
Like-named read-outs stand apart in the source and are kept apart here. Blank lines part the entries; values can stand above or below the compound they belong to. Residues, ends and D or L forms follow the SMILES beside them. No end group written: not given here.

Assays:
[1] = water wheel test; Kastin et al. 1984
[2] = U.S. Pat. No. 4,278,595
[3] = rats; Petersson et al. 2004
[4] = mice, modified Dopa test; U.S. Pat. No. 3,708,593
[5] = rats; Pahdy et al. 2005
[6] = rats; Petersson et al. 2001
[7] = rats; Hayashi et al. 1983, 1984
[8] = rats; Kastin et al. 1985

metabolism subsequent to administration [2]: rapidly metabolized
Compound: CC(C)C[C@H](NC(=O)[C@@H]1CCCN1)C(=O)NCC(N)=O [MIF, prolyl-leucyl-glycinamide] (H-Pro-Leu-Gly-NH2)
antidepressant activity [1]: active as antidepressants
oxytocin levels [3]: decreases oxytocin levels
antidepressant activity [4]: exhibits antidepressant activity

Compound: CC[C@H](C)[C@@H]1NC(=O)[C@H](Cc2ccc(O)cc2)NC(=O)[C@@H](N)CSSC[C@@H](C(=O)N2CCC[C@H]2C(=O)N[C@@H](CC(C)C)C(=O)NCC(N)=O)NC(=O)[C@H](CC(N)=O)NC(=O)[C@H](CCC(N)=O)NC1=O [oxytocin]
latex-induced inflammatory hyperalgesia [5]: inhibit Calotropis procera latex-induced inflammatory hyperalgesia
carrageenan induced inflammation [6]: decreases carrageenan induced inflammation

Compound: Tyr-Pro-Leu-Gly-NH2 (YPLG-NH2) [Tyr-MIF-1, brain derived peptide]
antidepressant activity [1]: active as antidepressants
effect on passive avoidance [7]: shown to affect passive avoidance
inhibition of the analgesic effect of morphine [8]: active in inhibiting the analgesic effect of morphine
